The test system of the assay is DPP synthetase. In words: Substrate specificity of the DPP synthetase on various allylic primers ([14C]IPP incorporation). It counts as biochemical, Paracoccus denitrificans. The note with it: for Enzyme Activity: allylic primer 25 μM, [14C]IPP 125 μM, 37° C., 1 hour; for Activity of the DPP synthetase with the allylic substrate (in words): substance used as allylic primer substrate. The procedure:
A 200 μl reaction solution shown below was prepared using an appropriate amount of the crude enzyme extract, various allylic primers and [^1-14C]IPP (54 or 57 Ci/mol; Amersham).
The solution was incubated at 37° C. for 1 hour to allow an enzyme reaction. Then, 200 μl of saturated aqueous NaCl solution and 1 ml of n-BuOH saturated with saturated aqueous NaCl solution were added thereto and agitated well. The resultant solution was centrifuged to extract the reaction products. 200 μl of the BuOH layer was collected, and 3 ml of Clear Sol was added thereto. Then, the enzyme activity was determined by measuring the radioactivity in the BuOH extract with a liquid scintillation counter. The enzyme activity was expressed in unit, one unit being the amount of IPP (nmol) taken into the reaction products per 1 minute.
The substrate specificity of this DPP synthetase has been examined on various allyl primers. The unit of enzyme activity is as defined above.

Molecules are shown by their SMILES.

For `CC(C)=CCC/C(C)=C/CC/C(C)=C/CC/C(C)=C/COP(=O)(O)OP(=O)(O)O` [EEE-GGPP, EEE-geranylgeranyl diphosphate], the “Activity of the DPP synthetase with the allylic substrate (in words)” value (“Activity of the DPP synthetase” below) is on record as “strong activity”. For the same molecule, the “Enzyme Activity” value (+Triton X-100 (0.5%)) is listed as 35.33 ×10^−3 unit. Besides, the “Enzyme Activity” value (−Triton X-100) was 3.22 ×10^−3 unit.

As for `CC(C)=CCC/C(C)=C/COP(=O)(O)OP(=O)(O)O` [GPP, geranyl diphosphate], the “Activity of the DPP synthetase” value is given as “slight activity”. Also, the “Enzyme Activity” value (+Triton X-100 (0.5%)) is recorded as 19.8 ×10^−3 unit. For the same molecule, the “Enzyme Activity” value (−Triton X-100) is recorded as 1.78 ×10^−3 unit.

Take `CC(C)=CCC/C(C)=C/CC/C(C)=C/CC/C(C)=C\COP(=O)(O)OP(=O)(O)O` [ZEE-GGPP, ZEE-geranylgeranyl diphosphate]: the “Activity of the DPP synthetase” value is recorded as “little activity”. For the same molecule, the “Enzyme Activity” value (+Triton X-100 (0.5%)) was 3.68 ×10^−3 unit. In addition, under “−Triton X-100”, the “Enzyme Activity” value was 2.47 ×10^−3 unit.

Source of the values: US6413761B2, “Decaprenyl diphosphate synthetase gene” (Toyota Jidosha Kabushiki Kaisha, priority 1997, dated 2002).
